Test results: article PMC4801368, “Functional and Biochemical Characterization of Alvinella pompejana Cys-Loop Receptor Homologues” (PLoS ONE, 2016)
Read-outs that look alike come from different tables or passages of the source.

Assays:
[1] = tested on: Alpo5-wt; experiment: Two-electrode voltage clamp (TEVC) on Alpo5-wt expressed in Xenopus laevis oocytes; type: cell-based, Alvinella pompejana; details: for EC50 / Hill coefficient: concentration-activation curve, n = 4; for EC50: Hill fit, -80 mV
Protocol: (§1) For the expression in Xenopus laevis oocytes, the genes coding for AlpoX-wt were subcloned into the vector pGEM-HE [38]. After NheI-treatment, the linearized plasmid DNA was transcribed to produce capped RNA by using the T7 mMESSAGE-mMACHINE transcription kit (Ambion). Four nanogram of the resulting RNA was injected into the cytosol of stage V and VI oocytes either manually or with an automated injection system (Roboinject, MultiChannelSystems). Oocyte preparations and injections were done using standard procedures.
(§2) One to five days after injection, electrophysiological recordings were performed by conventional or automated TEVC (HiClamp, MultiChannel Systems). […] Unless indicated otherwise, cells were held at a fixed potential of –80 mV throughout the experiment. To minimize heat shock, all preparation and recording procedures were carried out at 16°C [40]. Functional characterization consisted of the screening of potential ligands, the establishment of concentration-activation curves and the determination of ion selectivity. Different small molecules were tested for their effects on AlpoX-wt, such as dopamine, taurine, γ-aminobutyric acid (GABA), glycine and ivermectin (the complete list and the corresponding concentrations are mentioned in Table 1). To determine concentration-activation curves, cells were exposed to increasing concentrations of the test substance. To assess ion selectivity, current-voltage (I-V) relationships were determined in control OR2 solution as well as in medium in which chloride ions were substituted by gluconate. These I-V curves were generated by voltage ramps applied within 4 s and constructed around the reversal potential (Erev ± 80 mV). Leak properties of the cells measured in control conditions were subtracted from the I-V curves measured during exposure to 10 mM GABA.
(§3) Data were acquired either on a manual setup or on an automated recording system (HiClamp, MultiChannel Systems). […] Data acquired with the HiClamp were analyzed using the corresponding software.

[2] = tested on: Alpo6-wt; experiment: Two-electrode voltage clamp (TEVC) on Alpo6-wt expressed in Xenopus laevis oocytes; type: cell-based, Alvinella pompejana; details: for Hill-coefficients: activation-response curves; for EC50: concentration-activation curve
Protocol: as §1, §2, §3

[3] = biological target: Alpo4-wt (Alvinella pompejana); experiment: negative stain EM; purified protein 0.03 mg/mL on carbon-coated copper grids, 1% uranyl formate, 120 kV; 2D class averages for Alpo4-wt

| Molecule | agonist type [1] | EC50 [1] | Hill coefficient [1] | agonist type [2] | Hill-coefficients [2] | EC50 ([2]; n = 3, read-out: EC50 values) | stoichiometry N [3] | currents evoked at a saturating concentration relative to responses evoked by a saturating concentration of glycine ([1]; on average) | EC50 ([2]; n = 3, read-out: EC50 value) | current evoked by a saturating concentration relative to current evoked by a saturating concentration of glycine ([2]; on average) |
| --- | --- | --- | --- | --- | --- | --- | --- | --- | --- | --- |
| NCC(=O)O [glycine] | full-agonists | 291 ± 16.4 µM | 2.68 ± 0.08 | full agonists | 2.20 ± 0.16 | 22100 ± 4530 µM |  |  |  |  |
| Alpo4-wt (receptor) |  |  |  |  |  |  | 5 |  |  |  |
| NCCS(=O)(=O)O [taurine] | partial agonist | 370 ± 30.2 µM | 2.51 ± 0.18 | full agonists | 1.87 ± 0.12 |  |  | 74% | 227 ± 30.5 µM |  |
| NCCCC(=O)O [GABA, γ-aminobutyric acid] | full-agonists |  | 2.49 ± 0.09 | partial agonistic effect | 1.94 ± 0.15 |  |  |  |  | 86% |
